Measurements published in patent publication US9908912B2, “Triclosan derivatives and uses thereof” (priority 2012, dated 2018).
≈ marks a conversion by molar mass, not a printed value.

Tests used:
S. haemolyticus = experiment: MIC in Nutrient Agar; type: cell-based, Staphylococcus haemolyticus; details: Nutrient Agar containing 0.1 μg/ml of inducer; 37° C., 24 hours
Experimental: (§1) The triclosan-glycosides were added to Nutrient Agar (Oxoid CM0003; Thermofisher Scientific) and organisms were transferred onto the plates surface using a multi-point inoculation device (Oxoid Cathra, Thermofisher Scientific). The latter is essentially a metal plate containing a number of needles. Each needle tip (usually 36 per plate) dips into an organism suspension (in phosphate buffered saline; PBS) and the needles are then moved over the agar plate and lowered onto its surface. In this way the growth of colonies of up to 36 different organisms can be observed on one plate.
(§2) Nutrient Agar No. 2 was prepared according to the manufacturers instructions, autoclaved and cooled to 50° C. Test compounds were then added as filter sterilised solutions (50:50 deionised water:ethanol), to give final concentrations from 256 μg/ml to 0 μg/ml in doubling dilutions. […] The mixtures were swirled then four plates (25 ml molten agar) were poured for each concentration. Plates were dried in a laminar flow cabinet then inoculated with overnight cultures of organisms that had been decimally diluted twice in sterile saline solution (approximately 10^7 cfu/ml) using a multi-point inoculator. Plates were then incubated at 37° C. for 24 hours. MICs were determined as the concentration at which no growth was observed.

[1] = system: Kleb. aerogenes NCTC 88167; experiment: MIC in Nutrient Broth No. 2; type: cell-based, Klebsiella aerogenes; details: Nutrient Broth No. 2
Experimental: (§3) Bacteria species as indicated in Table 1 were incubated for approximately 24 hours at 37° C.
(§4) The tests were repeated with the addition of inducers. Methyl glycoside was the main inducer used, but other suitable inducers include isopropyl-β-D-thiogalactopyranoside, p-nitrophenyl-α-L-arabinopyranoside and p-nitrophenyl-β-D-xylopyranoside. Concentration of inducer in all cases was 100 μg/ml.

Ser. marcescens = experiment: MIC in Nutrient Agar; type: cell-based, Serratia marcescens; details: Nutrient Agar containing 0.1 μg/ml of inducer; 37° C., 24 hours
Experimental: as §1, §2

E. hermanii = experiment: MIC in Nutrient Agar; type: cell-based, Escherichia hermanii; details: Nutrient Agar containing 0.1 μg/ml of inducer; 37° C., 24 hours
Experimental: as §1, §2

Kleb. pneumoniae = experiment: MIC in Nutrient Agar; type: cell-based, Klebsiella pneumoniae; details: Nutrient Agar containing 0.1 μg/ml of inducer; 37° C., 24 hours
Experimental: as §1, §2

E. coli = experiment: MIC in Nutrient Agar; type: cell-based, Escherichia coli; details: 8 strains; Nutrient Agar containing 0.1 μg/ml of inducer; 37° C., 24 hours
Experimental: as §1, §2

Staph. aureus = experiment: MIC in Nutrient Broth No. 2; type: cell-based, Staphylococcus aureus; details: 8 strains, Nutrient Broth No. 2
Experimental: as §3, §4

[2] = system: Strep. pyogenes ATCC 19615; experiment: MIC in Nutrient Broth No. 2; type: cell-based, Streptococcus pyogenes; details: Nutrient Broth No. 2
Experimental: as §3, §4

Ent. faecalis = experiment: MIC in Nutrient Agar; type: cell-based, Enterococcus faecalis; details: Nutrient Agar containing 0.1 μg/ml of inducer; 37° C., 24 hours
Experimental: as §1, §2

[3] = system: Strep. agalactiae OCC 182; experiment: MIC in Nutrient Broth No. 2; type: cell-based, Streptococcus agalactiae; details: Nutrient Broth No. 2
Experimental: as §3, §4

Aer. hydrophila = experiment: MIC in Nutrient Agar; type: cell-based, Aeromonas hydrophila; details: Nutrient Agar containing 0.1 μg/ml of inducer; 37° C., 24 hours
Experimental: as §1, §2

Cr. sakazakii = experiment: MIC in Nutrient Agar; type: cell-based, Cronobacter sakazakii; details: Nutrient Agar containing 0.1 μg/ml of inducer; 37° C., 24 hours
Experimental: as §1, §2

Str. pneumoniae = experiment: MIC in Nutrient Agar; type: cell-based, Streptococcus pneumoniae; details: Nutrient Agar containing 0.1 μg/ml of inducer; 37° C., 24 hours
Experimental: as §1, §2

Ent. cloacae ATCC 13047 = experiment: MIC in Nutrient Broth No. 2; type: cell-based, Enterobacter cloacae; details: Nutrient Broth No. 2
Experimental: as §3, §4

C. freundii = experiment: MIC in Nutrient Agar; type: cell-based, Citrobacter freundii; details: Nutrient Agar containing 0.1 μg/ml of inducer; 37° C., 24 hours
Experimental: as §1, §2

Ent. faecium = experiment: MIC in Nutrient Agar; type: cell-based, Enterococcus faecium; details: Nutrient Agar containing 0.1 μg/ml of inducer; 37° C., 24 hours
Experimental: as §1, §2

[4] = system: Ps. Aeruginosa ATCC 27853; experiment: MIC in Nutrient Broth No. 2; type: cell-based; details: Nutrient Broth No. 2
Experimental: as §3, §4

[5] = system: Proteus mirabilis ATCC 12453; experiment: MIC in Nutrient Broth No. 2; type: cell-based; details: Nutrient Broth No. 2
Experimental: as §3, §4

[6] = system: Citrobacter freundii OCC 851; experiment: MIC in Nutrient Broth No. 2; type: cell-based; details: Nutrient Broth No. 2
Experimental: as §3, §4

[7] = system: Enterobacter aerogenes ATCC 13048; experiment: MIC in Nutrient Broth No. 2; type: cell-based; details: Nutrient Broth No. 2
Experimental: as §3, §4

Hafnia alvei ATCC 13337 = experiment: MIC in Nutrient Broth No. 2; type: cell-based; details: Nutrient Broth No. 2
Experimental: as §3, §4

[8] = system: Bacillus subtilis NCTC 10073; experiment: MIC in Nutrient Broth No. 2; type: cell-based; details: Nutrient Broth No. 2
Experimental: as §3, §4

[9] = system: Bacillus cereus ATCC 14579; experiment: MIC in Nutrient Broth No. 2; type: cell-based; details: Nutrient Broth No. 2
Experimental: as §3, §4

Proteus vulgaris OCC 195 = experiment: MIC in Nutrient Broth No. 2; type: cell-based; details: Nutrient Broth No. 2
Experimental: as §3, §4

Salmonella = experiment: MIC in Nutrient Broth No. 2; type: cell-based; details: 11 strains, Nutrient Broth No. 2
Experimental: as §3, §4

[10] = system: Aeromonas hydrophila OCC 778; experiment: MIC in Nutrient Broth No. 2; type: cell-based; details: Nutrient Broth No. 2
Experimental: as §3, §4

Escherichia coli = experiment: MIC in Nutrient Broth No. 2; type: cell-based; details: 8 strains, Nutrient Broth No. 2
Experimental: as §3, §4

[11] = system: Enterococcus faecalis ATCC 29212; experiment: MIC in Nutrient Broth No. 2; type: cell-based; details: Nutrient Broth No. 2
Experimental: as §3, §4

[12] = system: Enterococcus faecium ATCC 19434; experiment: MIC in Nutrient Broth No. 2; type: cell-based; details: Nutrient Broth No. 2
Experimental: as §3, §4

[13] = system: Serratia marcescens OCC 217; experiment: MIC in Nutrient Broth No. 2; type: cell-based; details: Nutrient Broth No. 2
Experimental: as §3, §4

Str. viridans = experiment: MIC in Nutrient Agar; type: cell-based, Streptococcus viridans; details: Nutrient Agar containing 0.1 μg/ml of inducer; 37° C., 24 hours
Experimental: as §1, §2

[14] = system: Staph. saprophyticus ATCC 15305; experiment: MIC in Nutrient Broth No. 2; type: cell-based, Staphylococcus saprophyticus; details: Nutrient Broth No. 2
Experimental: as §3, §4

Kleb. aerogenes = experiment: MIC in Nutrient Agar; type: cell-based, Klebsiella aerogenes; details: Nutrient Agar containing 0.1 μg/ml of inducer; 37° C., 24 hours
Experimental: as §1, §2

OC[C@H]1O[C@H](Oc2cc(Cl)ccc2Oc2ccc(Cl)cc2Cl)[C@H](O)[C@@H](O)[C@H]1O [α-D-Galactoside, triclosan-α-D-galactopyranoside]
MIC (S. haemolyticus): 8 µg/mL (≈ 17.7 µM) | MIC ([1]; with inducer 100 μg/ml): 64 µg/mL (≈ 142 µM) | MIC ([1]; without inducer): 32 µg/mL (≈ 70.8 µM) | MIC (Ser. marcescens): >256 µg/mL | MIC (E. hermanii): 32 µg/mL (≈ 70.8 µM) | MIC (Kleb. pneumoniae): 16 µg/mL (≈ 35.4 µM) | MIC (E. coli): 8 to 32 µg/mL | MIC (Staph. aureus; with inducer 100 μg/ml): 8 to 16 µg/mL | MIC (Staph. aureus; without inducer): 8 to 16 µg/mL | MIC ([2]; with inducer 100 μg/ml): 256 µg/mL (≈ 567 µM) | MIC ([2]; without inducer): 256 µg/mL (≈ 567 µM) | MIC (Ent. faecalis): >256 µg/mL | MIC ([3]; with inducer 100 μg/ml): >256 µg/mL | MIC ([3]; without inducer): >256 µg/mL | MIC (Aer. hydrophila): >256 µg/mL | MIC (Cr. sakazakii): 32 µg/mL (≈ 70.8 µM) | MIC (Str. pneumoniae): 256 µg/mL (≈ 567 µM) | MIC (Ent. cloacae ATCC 13047; with inducer 100 μg/ml): 16 µg/mL (≈ 35.4 µM) | MIC (Ent. cloacae ATCC 13047; without inducer): 32 µg/mL (≈ 70.8 µM) | MIC (C. freundii): 64 µg/mL (≈ 142 µM) | MIC (Ent. faecium): >256 µg/mL | MIC ([4]; with inducer 100 μg/ml): >256 µg/mL | MIC ([4]; without inducer): >256 µg/mL | MIC ([5]; with inducer 100 μg/ml): 32 µg/mL (≈ 70.8 µM) | MIC ([5]; without inducer): 32 µg/mL (≈ 70.8 µM) | MIC ([6]; with inducer 100 μg/ml): 128 µg/mL (≈ 283 µM) | MIC ([6]; without inducer): 64 µg/mL (≈ 142 µM) | MIC ([7]; with inducer 100 μg/ml): 64 µg/mL (≈ 142 µM) | MIC ([7]; without inducer): 128 µg/mL (≈ 283 µM) | MIC (Hafnia alvei ATCC 13337; with inducer 100 μg/ml): 8 µg/mL (≈ 17.7 µM) | MIC (Hafnia alvei ATCC 13337; without inducer): 16 µg/mL (≈ 35.4 µM) | MIC ([8]; with inducer 100 μg/ml): >256 µg/mL | MIC ([8]; without inducer): 256 µg/mL (≈ 567 µM) | MIC ([9]; with inducer 100 μg/ml): >256 µg/mL | MIC ([9]; without inducer): >256 µg/mL | MIC (Proteus vulgaris OCC 195; with inducer 100 μg/ml): 64 µg/mL (≈ 142 µM) | MIC (Proteus vulgaris OCC 195; without inducer): 64 µg/mL (≈ 142 µM) | MIC (Salmonella; with inducer 100 μg/ml): 32 to 128 µg/mL | MIC (Salmonella; without inducer): 32 to 64 µg/mL | MIC ([10]; with inducer 100 μg/ml): >256 µg/mL | MIC ([10]; without inducer): >256 µg/mL | MIC (Escherichia coli; with inducer 100 μg/ml): 8 to 64 µg/mL | MIC (Escherichia coli; without inducer): 16 to 64 µg/mL | MIC ([11]; with inducer 100 μg/ml): >256 µg/mL | MIC ([11]; without inducer): >256 µg/mL | MIC ([12]; with inducer 100 μg/ml): >256 µg/mL | MIC ([12]; without inducer): >256 µg/mL | MIC ([13]; with inducer 100 μg/ml): >256 µg/mL | MIC ([13]; without inducer): >256 µg/mL | MIC (Str. viridans): >256 µg/mL | MIC ([14]; with inducer 100 μg/ml): 64 µg/mL (≈ 142 µM) | MIC ([14]; without inducer): 64 µg/mL (≈ 142 µM) | MIC (Kleb. aerogenes): 32 µg/mL (≈ 70.8 µM)
